Measured values as given in PubChem BioAssay AID248 (DTP/NCI, 2004).
“And” between values parts separate entries of the source, which are not always exact repeats. Identical values can stand only once. Inconclusive results and toxic doses are left out. No stated cut-off is given here; in the data, active means T/C of 150% or more; inactive means T/C below 125%.

Test system: L1210 leukemia ip in BDF1 mice, survival T/C
Experiment: NCI In Vivo Anticancer Drug Screen. Data for tumor model L1210 Leukemia (intraperitoneal) in B6D2F1 (BDF1) mice
Settings: endpoint: mean survival time, higher = longer survival
Procedure, shortened: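 Mice bearing the transplanted tumor received compound or vehicle. Survival of the treated group was divided by that of the vehicle-treated control group to give the ratio.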

[1] = dose: 100.0 mg/kg/injection, schedule: Q01DX009 (ip), vehicle: Klucel (hydroxypropylcellulose) (HPC)
[2] = dose: 100.0 mg/kg/injection, schedule: Q04DX002 (ip), vehicle: Klucel (hydroxypropylcellulose) (HPC)
[3] = dose: 200.0 mg/kg/injection, schedule: Q04DX002 (ip), vehicle: Klucel (hydroxypropylcellulose) (HPC)
[4] = dose: 100.0 mg/kg/injection, schedule: Q01DX001 (ip), vehicle: saline
[5] = dose: 200.0 mg/kg/injection, schedule: Q01DX001 (ip), vehicle: saline
[6] = dose: 400.0 mg/kg/injection, schedule: Q01DX001 (ip), vehicle: saline
[7] = dose: 100.0 mg/kg/injection, schedule: Q01DX001 (ip), vehicle: carboxymethylcellulose (CMC)
[8] = dose: 200.0 mg/kg/injection, schedule: Q01DX001 (ip), vehicle: carboxymethylcellulose (CMC)
[9] = dose: 400.0 mg/kg/injection, schedule: Q01DX001 (ip), vehicle: carboxymethylcellulose (CMC)
[10] = dose: 200.0 mg/kg/injection, schedule: Q01DX009 (ip), vehicle: Klucel (hydroxypropylcellulose) (HPC)
[11] = dose: 400.0 mg/kg/injection, schedule: Q01DX009 (ip), vehicle: Klucel (hydroxypropylcellulose) (HPC)
[12] = dose: 400.0 mg/kg/injection, schedule: Q04DX002 (ip), vehicle: Klucel (hydroxypropylcellulose) (HPC)

Measured: T/C

CC(=O)CC(=O)C(F)(F)F.CC(=O)CC(=O)C(F)(F)F.[Mn]
inactive: dose: 25.0 mg/kg/injection, schedule: Q01DX009 (ip), vehicle: Klucel (hydroxypropylcellulose) (HPC) 106 % of control | dose: 50.0 mg/kg/injection, schedule: Q01DX005 (ip), vehicle: Klucel (hydroxypropylcellulose) (HPC) 97 % of control | dose: 50.0 mg/kg/injection, schedule: Q01DX009 (ip), vehicle: Klucel (hydroxypropylcellulose) (HPC) 106 % of control | dose: 100.0 mg/kg/injection, schedule: Q01DX005 (ip), vehicle: Klucel (hydroxypropylcellulose) (HPC) 93 % of control | [1] 106 % of control | [2] 104 % of control | [3] 96 % of control

CCNC(=O)Nc1ccccc1
inactive: [2] 93 % of control | [3] 96 % of control

CC(C)(CCN(CC(=O)O)CC(=O)O)[N+](=O)[O-]
inactive: [4] 112 % of control | [5] 96 % of control | [6] 102 % of control

CC(=O)C(C)C(=O)c1cc(C)c(Br)s1 (stereo not drawn)
inactive: [7] 94 % of control | [8] 97 % of control | [9] 94 % of control

COc1cc(C=O)ccc1OC(=O)Nc1ccc(F)c([N+](=O)[O-])c1
inactive: dose: 25.0 mg/kg/injection, schedule: Q01DX009 (ip), vehicle: other 97 % of control | dose: 50.0 mg/kg/injection, schedule: Q01DX009 (ip), vehicle: other 92 % of control | dose: 100.0 mg/kg/injection, schedule: Q01DX009 (ip), vehicle: other 97 % of control and 98 % of control

CCOC(=O)C1CSCC1=O (stereo not drawn)
inactive: dose: 25.0 mg/kg/injection, schedule: Q01DX009 (ip), vehicle: water 97 % of control | dose: 50.0 mg/kg/injection, schedule: Q01DX009 (ip), vehicle: water 90 % of control | dose: 100.0 mg/kg/injection, schedule: Q01DX009 (ip), vehicle: water 104 % of control

Cc1coc(NS(=O)(=O)c2ccc(N=Nc3c(N)nc(N)[nH]c3=O)cc2)c1C
inactive: [4] 109 % of control | [5] 102 % of control | [6] 105 % of control

c1ccc2nc3c(cc2c1)[nH]c1ccccc13
inactive: dose: 100.0 mg/kg/injection, schedule: Q04DX002 (ip), vehicle: gum acacia 92 % of control | dose: 200.0 mg/kg/injection, schedule: Q04DX002 (ip), vehicle: gum acacia 106 % of control | dose: 400.0 mg/kg/injection, schedule: Q04DX002 (ip), vehicle: gum acacia 103 % of control

NC(=NC1CCCCC1)c1ccc(C(=O)OCc2ccccc2)cc1
inactive: [7] 94 % of control | [8] 89 % of control | [9] 94 % of control

CC(=O)n1cc(/C=C2\N=C(c3cccc(Cl)c3)OC2=O)c2ccccc21
inactive: [1] 112 % of control | [10] 104 % of control | [11] 101 % of control

COc1ccc(NC(=O)c2ccc(Cl)cc2Cl)cc1
inactive: [2] 111 % of control | [3] 104 % of control | [12] 101 % of control

Cc1ccc2cc3c4ccccc4ccc3[n+](C)c2c1
inactive: dose: 75.0 mg/kg/injection, schedule: Q01DX001 (ip), vehicle: carboxymethylcellulose (CMC) 100 % of control | dose: 150.0 mg/kg/injection, schedule: Q01DX001 (ip), vehicle: carboxymethylcellulose (CMC) 100 % of control | dose: 300.0 mg/kg/injection, schedule: Q01DX001 (ip), vehicle: carboxymethylcellulose (CMC) 102 % of control

CCOc1ccc(C(c2ccc(OCC)cc2)C(Cl)(Cl)Cl)cc1
inactive: dose: 100.0 mg/kg/injection, schedule: Q01DX001 (ip), vehicle: Klucel (hydroxypropylcellulose) (HPC) 106 % of control | dose: 200.0 mg/kg/injection, schedule: Q01DX001 (ip), vehicle: Klucel (hydroxypropylcellulose) (HPC) 100 % of control | dose: 400.0 mg/kg/injection, schedule: Q01DX001 (ip), vehicle: Klucel (hydroxypropylcellulose) (HPC) 100 % of control

Cc1ccc(S(=O)(=O)Nc2ccccc2)cc1
inactive: [2] 100 % of control | [3] 94 % of control | [12] 91 % of control

CC(=O)OCC[N+](C)(C)CCCCCCCCCC[N+](C)(C)CCOC(C)=O
inactive: dose: 3.0 mg/kg/injection, schedule: Q01DX009 (ip), vehicle: saline 100 % of control | dose: 6.25 mg/kg/injection, schedule: Q01DX009 (ip), vehicle: saline 89 % of control | dose: 12.5 mg/kg/injection, schedule: Q01DX009 (ip), vehicle: Klucel (hydroxypropylcellulose) (HPC) 97 % of control

Cc1[nH]cnc1C(c1ccccc1)c1ccccc1
inactive: dose: 100.0 mg/kg/injection, schedule: Q01DX001 (ip), vehicle: saline with Tween-80 108 % of control | dose: 200.0 mg/kg/injection, schedule: Q01DX001 (ip), vehicle: saline with Tween-80 100 % of control

O=C(O)CNCC(=O)O
inactive: dose: 25.0 mg/kg/injection, schedule: Q01DX009 (ip), vehicle: saline 103 % of control | dose: 50.0 mg/kg/injection, schedule: Q01DX009 (ip), vehicle: saline 90 % of control | dose: 100.0 mg/kg/injection, schedule: Q01DX009 (ip), vehicle: saline 93 % of control and 95 % of control | dose: 100.0 mg/kg/injection, schedule: Q04DX003 (ip), vehicle: saline with Tween-80 105 % of control | dose: 200.0 mg/kg/injection, schedule: Q04DX003 (ip), vehicle: saline with Tween-80 101 % of control | dose: 400.0 mg/kg/injection, schedule: Q04DX003 (ip), vehicle: saline with Tween-80 105 % of control

CCCCOc1ccc(OCCCCCCCCCC[N+](C)(C)C)cc1
inactive: dose: 1.56 mg/kg/injection, schedule: Q04DX002 (ip), vehicle: saline 103 % of control | dose: 3.13 mg/kg/injection, schedule: Q04DX002 (ip), vehicle: saline 96 % of control | dose: 6.25 mg/kg/injection, schedule: Q04DX002 (ip), vehicle: saline 96 % of control | dose: 12.5 mg/kg/injection, schedule: Q04DX002 (ip), vehicle: saline 97 % of control and 122 % of control

OC1(CCCc2ccccc2)CCNCC1
inactive: dose: 75.0 mg/kg/injection, schedule: Q01DX001 (ip), vehicle: saline 104 % of control | dose: 150.0 mg/kg/injection, schedule: Q01DX001 (ip), vehicle: saline 110 % of control

CCCCC(C(=O)O)c1ccccc1 (stereo not drawn)
inactive: dose: 100.0 mg/kg/injection, schedule: Q04DX003 (ip), vehicle: saline sonified 100 % of control | dose: 200.0 mg/kg/injection, schedule: Q04DX003 (ip), vehicle: saline sonified 97 % of control | dose: 400.0 mg/kg/injection, schedule: Q04DX003 (ip), vehicle: saline sonified 100 % of control

Cc1ccc(C)c(NC(=O)Nc2cccc(O)c2)c1
inactive: [1] 102 % of control | [2] 109 % of control | [10] 103 % of control | [3] 102 % of control | [11] 94 % of control | [12] 109 % of control

OCCOCC12c3ccccc3C3C(c4ccccc41)C32 (stereo not drawn)
inactive: dose: 50.0 mg/kg/injection, schedule: Q04DX002 (ip), vehicle: saline with Tween-80 90 % of control | dose: 200.0 mg/kg/injection, schedule: Q04DX002 (ip), vehicle: saline with Tween-80 96 % of control
